Tests used:
[1] = test system: fatty acid synthesis in B. napus cells; experiment: 14C-acetate / 14C-malonate labeling of lipids (feedback inhibition of fatty acid synthesis); format: cell-based, Brassica napus
Procedure: All radioisotopes were obtained from American Radiolabeled Chemicals (St. Louis, Mo. USA). Labeling was conducted on cells 5 days after subculturing with a culture density of ˜20 mg FW mL^−1 and that had medium refreshed 16 h prior. For labeling, three 1 mL aliquots of cells were carefully removed from each flask and were labeled with either 0.2 μCi of 1,2-^14C-acetate (50-60 mCi mmol^−1) or 2-^14C-malonate (40-60 mCi mmol^−1) for 15 minutes at 25° C. with occasional shaking. Haloxyfop (Sigma) was dissolved in DMSO and added 30 min prior to labeling. Lipids were extracted and separated by TLC as described above. Radioactivity was detected by phosphorimaging and was quantified using ImageQuant software (GE Healthcare, Piscataway, N.J., USA). Incorporation of label into individual fatty acids was determined by making FAMEs as described above, separating the methyl esters by TLC as described in (Koo, Fulda, Browse and Ohlrogge 2005, Plant J, 44, 620-632) and measuring radioactivity by phosphorimaging.
Feedback inhibition of fatty acid synthesis was measured by the addition of a ^14C-acetate tracer. […] Sterol synthesis is dependent on acetyl-CoA and ATP, both of which are required for fatty acid synthesis. Therefore, if fatty acid synthesis is inhibited due to substrate limitation; so should be sterol biosynthesis. ^14C-acetate incorporation into sterols was unaffected by Tween-80 feeding, while incorporation into free fatty acids mirrored that of total lipids (FIG. 5), showing that the effect is restricted to fatty acid synthesis. […] Three hour time points were used for the remainder of this study to separate the period of maximum feedback inhibition from any lipid homeostatic mechanisms arising from the gross fatty acid compositional changes caused by long term Tween-80 feeding.
Plants contain plastidic and cytosolic ACCase and F AS enzyme systems, both of which are capable of incorporating ^14C-acetate into fatty acids. Comparing the distribution of label in individual fatty acid species can therefore provide information on the relative contribution of these pathways. […] The degree to which ^14C-acetate incorporation is inhibited by haloxyfop is proportional to cytosolic elongation activity, whereas haloxyfop-resistant incorporation is from the de nova pathway inside the plastid.
To separate these possibilities, we exploited the fact that exogenous malonate can be converted to malonyl-CoA and used by FAS, bypassing the ACCase reaction (Kannangara et al. 1973, Plant Physiol, 52, 156-161). If ACCase is the only point of inhibition then the rate of ^14C-malonate labeling of de novo fatty acids should be the same in cultures with or without Tween-80. […] Therefore ACCase, and not F AS, is inhibited by Tween-80 feeding. When combined, the data from FIG. 6 unambiguously identify plastidic ACCase as the target of Tween-80 induced feedback inhibition.

[2] = test system: genes encoding plastidic ACCase subunits; experiment: qPCR analysis of genes encoding plastidic ACCase subunits; format: cell-based, Brassica napus; conditions: 10 mM Tween-80, three hour treatment; mean of three repeats ± SE; 0 mM = 1
Procedure: RNA was isolated from cultured cells using Trizol Reagent (Invitrogen, Carlsbad, Calif., USA) and was treated with DNase. cDNA was synthesized from 1 μg of total RNA using the Bio-Rad (Hercules, Calif., USA) iScript cDNA synthesis kit. qPCR was performed with 1:50 of the cDNA product and SSO Fast EvaGreen supermix (Bio-Rad). Reference genes were ACT7 and UBC21 using primers as described previously (Chen et al. 2010 Anal Biochem, 405, 138-140). Primers for experimental genes were as follows: BC, biotin carboxylase (GenBank:A Y034410.1), F-[…] (SEQ ID No. 28) and R-[…] (SEQ ID No. 29); BCCP, biotin carboxyl carrier protein (GenBank: X90730.1), F-[…] (SEQ ID No. 30), R-[…] (SEQ ID No. 31); CT-α, carboxytransferase-α (GenBank GQ341624.1), F-[…] (SEQ ID No. 32), R-[…] (SEQ ID No. 33); CT-β, carboxytransferase-β (GenBank: Z50868.1), F-[…] (SEQ ID No. 34), R-[…] (SEQ ID No. 35). Relative expression level was calculated using REST software (Qiagen, Valencia, Calif., USA).
Gene expression analysis and enzyme assays were performed to better understand the apparent reduction in ACCase activity during Tween-80 feeding. Quantitative real-time PCR was used to measure the expression of genes encoding plastidic ACCase subunits. The specific genes selected for analysis were those originally identified as being embryo expressed in Brassica napus plants (Elborough et al. 1996, Biochemical Journal, 315, 103-112). […] Desalted extracts gave the same result. […] If dephosphorylation is involved in feedback, then treatment with phosphatase would be expected to reduce ACCase activity from inhibited cells to a lesser extent than from the control. If PII interaction is involved, then it is possible that incubation in the presence of 2-oxoglutarate would […] ACCase from a Tween-fed extract more than the control.

Substance: Tween-80
- reduction of incorporation of 14C-acetate into fatty acids ([1]; 3 hours of 10 mM Tween-80 feeding): 40%
- incorporation of 14C-malonate into 16 and 18 carbon fatty acids ([1]; 3 hours of 10 mM Tween-80 feeding, compared to 14C-acetate labeled controls): not inhibited
- 14C-acetate incorporation into sterols ([1]; Tween-80 feeding): unaffected
- reversibility of feedback inhibition after removal ([1]; after removal of Tween-80 following 3 hour exposure to 10 mM): completely reversible
- haloxyfop-resistant 14C-acetate incorporation ([1]; cultures with 10 mM Tween-80): reduced by about half
- Relative 14C-acetate incorporation (% control) ([1]; relative to a control sample without any Tweens, mean of three repeats ± SD): 50.9 ± 7.0 % control
- reduction of rate of 14C-acetate incorporation into lipids ([1]; three hours after addition of 10 mM Tween-80): 40%
- Relative gene expression BC [2]: 0.91 ± 0.17
- Relative gene expression BCCP [2]: 1.32 ± 0.58
- Relative gene expression CT-α [2]: 1.02 ± 0.33
- Relative gene expression CT-β [2]: 1.18 ± 0.29

From US20140230091A1, “MODIFIED PLANTS WITH INCREASED OIL CONTENT” (BROOKHAVEN SCIENCE ASSOCIATES, LLC, priority 2011, published 2014)
